Assay results published in patent US20020137929A1, “1 - (3-heterocyclylphenyl) isothiourea, -isourea, -guanidine and -amidine herbicidal agents” (Intellectual Property Department, BASF Aktiengesellschaft, priority 1998, published 2002).

Columns and labels:
ZEAMX (Corn, Field) = test: Preemergence herbicidal evaluation; format: in vivo, Zea mays; settings: rated 4-5 weeks after treatment
Summary of the method: (§1)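 Scores (0–9) reflect visual comparison with control plants for stand, vigor, malformation, size and chlorosis. Compound was applied to the soil after sowing, before emergence, as an aqueous acetone spray (about 0.0156–0.500 kg/ha), and cups were kept in a greenhouse for 4–5 weeks.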

ECHCG (Barnyardgrass) = test: Postemergence herbicidal evaluation; format: in vivo, Echinochloa crus-galli; settings: postemergence
Summary of the method: (§2)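 Scores (0–9) reflect plant stand, vigor, malformation, size, chlorosis and general appearance relative to control, read 4 to 5 weeks after treatment and averaged where tests were repeated. Application: about 0.0156–0.500 kg/ha sprayed at 40 psi onto two-week seedlings.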

[1] = system: TRZAWR (Wheat, Winter, cv Riband); test: Postemergence herbicidal evaluation; format: in vivo, Triticum aestivum; settings: postemergence
Summary of the method: as §2

[2] = system: TRZAWR (Wheat, Winter, cv Riband); test: Preemergence herbicidal evaluation; format: in vivo, Triticum aestivum; settings: rated 4-5 weeks after treatment
Summary of the method: as §1

ORYSAT (Rice, Tebonnet) [3] = test: Postemergence herbicidal evaluation; format: in vivo, Oryza sativa, (L.) Tebonnet; settings: postemergence
Summary of the method: as §2

AMBEL (Ragweed, Common) = test: Preemergence herbicidal evaluation; format: in vivo, Ambrosia artemisifolia; settings: rated 4-5 weeks after treatment
Summary of the method: as §1

[4] = system: ECHORC (Watergrass (Calif.)); test: Preemergence weed control under flooded paddy conditions; format: in vivo, Echinochloa oryzoides; settings: rated 3-4 weeks after treatment
Summary of the method: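 Silt loam, seeds in top 0.5 cm; flood held 1.5-3 cm; test cpd as acetone/water 50/50 into flood water, ~0.0313-0.500 kg/ha a.i.; greenhouse 3-4 wk; visual 0-9 score vs control.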

MOOVA (Monochoria) = test: as above; format: in vivo, Monochoria vaginalis; settings: rated 3-4 weeks after treatment
Summary of the method: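 Seeds or propagules sown in top 0.5 cm of silt loam soil, flooded 1.5 to 3 cm above surface throughout. Compound in 50/50 v/v aqueous/acetone pipetted into flood water at about 0.0313 to 0.500 kg/ha. Visual 0-9 rating versus control after three to four weeks in greenhouse.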

ORYSAT (Rice, Tebonnet) [5] = test: Preemergence herbicidal evaluation; format: in vivo, Oryza sativa, (L.) Tebonnet; settings: rated 4-5 weeks after treatment
Summary of the method: as §1

CASOB (Sicklepod) [6] = test: Preemergence herbicidal evaluation; format: in vivo, Cassia obtusifolia; settings: rated 4-5 weeks after treatment
Summary of the method: as §1

ABUTH (Velvetleaf) = test: Preemergence herbicidal evaluation; format: in vivo, Abutilon theophrasti; settings: rated 4-5 weeks after treatment
Summary of the method: as §1

CASOB (Sicklepod) [7] = test: Postemergence herbicidal evaluation; format: in vivo, Cassia obtusifolia; settings: postemergence
Summary of the method: as §2

ORYSAT (Rice, Tebonnet) [8] = test: Rice tolerance to post-transplant applications, flooded paddy conditions (Table III); format: in vivo, Oryza sativa, (L.) Tebonnet; settings: in vivo
Summary of the method: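 Two ten-day-old Tebonnet seedlings transplanted into flooded silt loam (water 1.5 to 3 cm above soil); three days later the water surface was treated with compound in aqueous/acetone 50/50 at about 0.0313 to 0.500 kg/ha. Visual 0-9 injury rating versus control after three to four weeks in greenhouse.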

Compound: C#CCOC(=O)CN1C(=O)CSC1=Nc1cc(-n2c(=O)cc(C(F)(F)F)n(C)c2=O)c(F)cc1Cl [Compound 115, 2-Propynyl 2-{{2-chloro-5-[3,6-dihydro-3-methyl-2,6-dioxo-4-(trifluoromethyl)-1(2H)-pyrimidinyl]-4-fluorophenyl}imino}-4-oxo-3-thiazolidineacetate]
- Preemergence herbicidal rating ZEAMX (ZEAMX (Corn, Field); rate 0.0156 kg/ha): 0.0
- Preemergence herbicidal rating ZEAMX (ZEAMX (Corn, Field); rate 0.0313 kg/ha): 0.0
- Preemergence herbicidal rating ZEAMX (ZEAMX (Corn, Field); rate 0.0625 kg/ha): 0.0
- Preemergence herbicidal rating ZEAMX (ZEAMX (Corn, Field); rate 0.1250 kg/ha): 1.0
- Preemergence herbicidal rating ZEAMX (ZEAMX (Corn, Field); rate 0.2500 kg/ha): 2.0
- Herbicidal rating ECHCG (ECHCG (Barnyardgrass); rate 0.0158 kg/ha): 0.0
- Herbicidal rating ECHCG (ECHCG (Barnyardgrass); rate 0.0315 kg/ha): 2.0
- Herbicidal rating ECHCG (ECHCG (Barnyardgrass); rate 0.0630 kg/ha): 3.0
- Herbicidal rating TRZAWR ([1]; rate 0.0158 kg/ha): 1.5
- Herbicidal rating TRZAWR ([1]; rate 0.0315 kg/ha): 2.5
- Herbicidal rating TRZAWR ([1]; rate 0.0630 kg/ha): 3.0
- Preemergence herbicidal rating TRZAWR ([2]; rate 0.0156 kg/ha): 0.0
- Preemergence herbicidal rating TRZAWR ([2]; rate 0.0313 kg/ha): 0.0
- Preemergence herbicidal rating TRZAWR ([2]; rate 0.0625 kg/ha): 0.0
- Preemergence herbicidal rating TRZAWR ([2]; rate 0.1250 kg/ha): 0.0
- Preemergence herbicidal rating TRZAWR ([2]; rate 0.2500 kg/ha): 4.0
- Herbicidal rating ORYSAT (ORYSAT (Rice, Tebonnet) [3]; rate 0.0158 kg/ha): 1.5
- Herbicidal rating ORYSAT (ORYSAT (Rice, Tebonnet) [3]; rate 0.0315 kg/ha): 2.0
- Herbicidal rating ORYSAT (ORYSAT (Rice, Tebonnet) [3]; rate 0.0630 kg/ha): 2.5
- Preemergence herbicidal rating AMBEL (AMBEL (Ragweed, Common); rate 0.0156 kg/ha): 0.0
- Preemergence herbicidal rating AMBEL (AMBEL (Ragweed, Common); rate 0.0313 kg/ha): 0.0
- Preemergence herbicidal rating AMBEL (AMBEL (Ragweed, Common); rate 0.0625 kg/ha): 0.0
- Preemergence herbicidal rating AMBEL (AMBEL (Ragweed, Common); rate 0.1250 kg/ha): 0.0
- Preemergence herbicidal rating AMBEL (AMBEL (Ragweed, Common); rate 0.2500 kg/ha): 1.0
- ECHORC herbicidal effect rating ([4]; 0.0313 kg/ha): 4.0
- ECHORC herbicidal effect rating ([4]; 0.0625 kg/ha): 4.0
- ECHORC herbicidal effect rating ([4]; 0.1250 kg/ha): 5.0
- ECHORC herbicidal effect rating ([4]; 0.2500 kg/ha): 5.0
- MOOVA herbicidal effect rating (MOOVA (Monochoria); 0.0313 kg/ha): 7.0
- MOOVA herbicidal effect rating (MOOVA (Monochoria); 0.0625 kg/ha): 9.0
- MOOVA herbicidal effect rating (MOOVA (Monochoria); 0.1250 kg/ha): 9.0
- MOOVA herbicidal effect rating (MOOVA (Monochoria); 0.2500 kg/ha): 9.0
- Preemergence herbicidal rating ORYSAT (ORYSAT (Rice, Tebonnet) [5]; rate 0.0156 kg/ha): 0.0
- Preemergence herbicidal rating ORYSAT (ORYSAT (Rice, Tebonnet) [5]; rate 0.0313 kg/ha): 0.0
- Preemergence herbicidal rating ORYSAT (ORYSAT (Rice, Tebonnet) [5]; rate 0.0625 kg/ha): 0.0
- Preemergence herbicidal rating ORYSAT (ORYSAT (Rice, Tebonnet) [5]; rate 0.1250 kg/ha): 1.0
- Preemergence herbicidal rating ORYSAT (ORYSAT (Rice, Tebonnet) [5]; rate 0.2500 kg/ha): 3.0
- Preemergence herbicidal rating CASOB (CASOB (Sicklepod) [6]; rate 0.0156 kg/ha): 2.0
- Preemergence herbicidal rating CASOB (CASOB (Sicklepod) [6]; rate 0.0625 kg/ha): 0.0
- Preemergence herbicidal rating CASOB (CASOB (Sicklepod) [6]; rate 0.1250 kg/ha): 4.0
- Preemergence herbicidal rating CASOB (CASOB (Sicklepod) [6]; rate 0.2500 kg/ha): 2.0
- Preemergence herbicidal rating ABUTH (ABUTH (Velvetleaf); rate 0.0156 kg/ha): 0.0
- Preemergence herbicidal rating ABUTH (ABUTH (Velvetleaf); rate 0.0313 kg/ha): 0.0
- Preemergence herbicidal rating ABUTH (ABUTH (Velvetleaf); rate 0.0625 kg/ha): 0.0
- Preemergence herbicidal rating ABUTH (ABUTH (Velvetleaf); rate 0.1250 kg/ha): 9.0
- Preemergence herbicidal rating ABUTH (ABUTH (Velvetleaf); rate 0.2500 kg/ha): 9.0
- Herbicidal rating CASOB (CASOB (Sicklepod) [7]; rate 0.0158 kg/ha): 0.0
- Herbicidal rating CASOB (CASOB (Sicklepod) [7]; rate 0.0315 kg/ha): 1.0
- Herbicidal rating CASOB (CASOB (Sicklepod) [7]; rate 0.0630 kg/ha): 1.0

Compound: COC(=O)C(C)OC(=O)CN1C(=O)CSC1=Nc1cc(-n2c(=O)cc(C(F)(F)F)n(C)c2=O)c(F)cc1Cl (centres unmarked) [Compound 116, 2-{{2-Chloro-5-[3,6-dihydro-3-methyl-2,6-dioxo-4-(trifluoromethyl)-1(2H)-pyrimidinyl]-4-fluorophenyl}imino}-4-oxo-3-thiazolidineacetic acid, ester with methyl lactate]
- Preemergence herbicidal rating ZEAMX (ZEAMX (Corn, Field); rate 0.0156 kg/ha): 0.0
- Preemergence herbicidal rating ZEAMX (ZEAMX (Corn, Field); rate 0.0313 kg/ha): 0.0
- Preemergence herbicidal rating ZEAMX (ZEAMX (Corn, Field); rate 0.0625 kg/ha): 0.0
- Preemergence herbicidal rating ZEAMX (ZEAMX (Corn, Field); rate 0.1250 kg/ha): 0.0
- Preemergence herbicidal rating ZEAMX (ZEAMX (Corn, Field); rate 0.2500 kg/ha): 0.0
- Herbicidal rating ECHCG (ECHCG (Barnyardgrass); rate 0.0158 kg/ha): 3.0
- Herbicidal rating ECHCG (ECHCG (Barnyardgrass); rate 0.0315 kg/ha): 1.0
- Herbicidal rating ECHCG (ECHCG (Barnyardgrass); rate 0.0630 kg/ha): 2.0
- ORYSAT herbicidal effect rating (rice tolerance) (ORYSAT (Rice, Tebonnet) [8]): 4.0
- herbicidal effect rating, ORYSAT (rice tolerance) (ORYSAT (Rice, Tebonnet) [8]): 2.0
- Herbicidal rating TRZAWR ([1]; rate 0.0158 kg/ha): 1.5
- Herbicidal rating TRZAWR ([1]; rate 0.0315 kg/ha): 2.5
- Herbicidal rating TRZAWR ([1]; rate 0.0630 kg/ha): 2.5
- Preemergence herbicidal rating TRZAWR ([2]; rate 0.0156 kg/ha): 0.0
- Preemergence herbicidal rating TRZAWR ([2]; rate 0.0313 kg/ha): 0.0
- Preemergence herbicidal rating TRZAWR ([2]; rate 0.0625 kg/ha): 0.0
- Preemergence herbicidal rating TRZAWR ([2]; rate 0.1250 kg/ha): 0.0
- Preemergence herbicidal rating TRZAWR ([2]; rate 0.2500 kg/ha): 1.0
- Herbicidal rating ORYSAT (ORYSAT (Rice, Tebonnet) [3]; rate 0.0158 kg/ha): 1.5
- Herbicidal rating ORYSAT (ORYSAT (Rice, Tebonnet) [3]; rate 0.0315 kg/ha): 2.0
- Herbicidal rating ORYSAT (ORYSAT (Rice, Tebonnet) [3]; rate 0.0630 kg/ha): 2.0
- Preemergence herbicidal rating AMBEL (AMBEL (Ragweed, Common); rate 0.0156 kg/ha): 0.0
- Preemergence herbicidal rating AMBEL (AMBEL (Ragweed, Common); rate 0.0313 kg/ha): 0.0
- Preemergence herbicidal rating AMBEL (AMBEL (Ragweed, Common); rate 0.0625 kg/ha): 2.0
- Preemergence herbicidal rating AMBEL (AMBEL (Ragweed, Common); rate 0.1250 kg/ha): 2.0
- Preemergence herbicidal rating AMBEL (AMBEL (Ragweed, Common); rate 0.2500 kg/ha): 1.0
- herbicidal effect rating, ECHORC ([4]; 0.0313 kg/ha): 0.0
- herbicidal effect rating, ECHORC ([4]; 0.0625 kg/ha): 5.0
- ECHORC herbicidal effect rating ([4]; 0.1250 kg/ha): 6.0
- ECHORC herbicidal effect rating ([4]; 0.2500 kg/ha): 5.0
- herbicidal effect rating, MOOVA (MOOVA (Monochoria); 0.0313 kg/ha): 7.0
- herbicidal effect rating, MOOVA (MOOVA (Monochoria); 0.0625 kg/ha): 9.0
- MOOVA herbicidal effect rating (MOOVA (Monochoria); 0.1250 kg/ha): 9.0
- MOOVA herbicidal effect rating (MOOVA (Monochoria); 0.2500 kg/ha): 9.0
- Preemergence herbicidal rating ORYSAT (ORYSAT (Rice, Tebonnet) [5]; rate 0.0156 kg/ha): 0.0
- Preemergence herbicidal rating ORYSAT (ORYSAT (Rice, Tebonnet) [5]; rate 0.0313 kg/ha): 0.0
- Preemergence herbicidal rating ORYSAT (ORYSAT (Rice, Tebonnet) [5]; rate 0.0625 kg/ha): 0.0
- Preemergence herbicidal rating ORYSAT (ORYSAT (Rice, Tebonnet) [5]; rate 0.1250 kg/ha): 0.0
- Preemergence herbicidal rating ORYSAT (ORYSAT (Rice, Tebonnet) [5]; rate 0.2500 kg/ha): 1.0
- Preemergence herbicidal rating CASOB (CASOB (Sicklepod) [6]; rate 0.0156 kg/ha): 0.0
- Preemergence herbicidal rating CASOB (CASOB (Sicklepod) [6]; rate 0.0313 kg/ha): 0.0
- Preemergence herbicidal rating CASOB (CASOB (Sicklepod) [6]; rate 0.0625 kg/ha): 0.0
- Preemergence herbicidal rating CASOB (CASOB (Sicklepod) [6]; rate 0.1250 kg/ha): 0.0
- Preemergence herbicidal rating CASOB (CASOB (Sicklepod) [6]; rate 0.2500 kg/ha): 2.0
- Preemergence herbicidal rating ABUTH (ABUTH (Velvetleaf); rate 0.0156 kg/ha): 0.0
- Preemergence herbicidal rating ABUTH (ABUTH (Velvetleaf); rate 0.0313 kg/ha): 0.0
- Preemergence herbicidal rating ABUTH (ABUTH (Velvetleaf); rate 0.0625 kg/ha): 4.0
- Preemergence herbicidal rating ABUTH (ABUTH (Velvetleaf); rate 0.1250 kg/ha): 9.0
- Preemergence herbicidal rating ABUTH (ABUTH (Velvetleaf); rate 0.2500 kg/ha): 9.0
- Herbicidal rating CASOB (CASOB (Sicklepod) [7]; rate 0.0158 kg/ha): 1.0
- Herbicidal rating CASOB (CASOB (Sicklepod) [7]; rate 0.0315 kg/ha): 1.0
- Herbicidal rating CASOB (CASOB (Sicklepod) [7]; rate 0.0630 kg/ha): 1.0
